# Experimental data: ChEMBL document CHEMBL1201862, “PubChem BioAssay data set” (2004)
# Activity calls are given as the source filed them.
# Key:
# [1] = biological target: T1, Mannose-6-phosphate isomerase (Homo sapiens, UniProt P34949); assay: inhibitors of human PMI, primary screen, biochemical, fluorescence intensity, coupled assay (AID 1209)
# T1 sequence (P34949 whole entry): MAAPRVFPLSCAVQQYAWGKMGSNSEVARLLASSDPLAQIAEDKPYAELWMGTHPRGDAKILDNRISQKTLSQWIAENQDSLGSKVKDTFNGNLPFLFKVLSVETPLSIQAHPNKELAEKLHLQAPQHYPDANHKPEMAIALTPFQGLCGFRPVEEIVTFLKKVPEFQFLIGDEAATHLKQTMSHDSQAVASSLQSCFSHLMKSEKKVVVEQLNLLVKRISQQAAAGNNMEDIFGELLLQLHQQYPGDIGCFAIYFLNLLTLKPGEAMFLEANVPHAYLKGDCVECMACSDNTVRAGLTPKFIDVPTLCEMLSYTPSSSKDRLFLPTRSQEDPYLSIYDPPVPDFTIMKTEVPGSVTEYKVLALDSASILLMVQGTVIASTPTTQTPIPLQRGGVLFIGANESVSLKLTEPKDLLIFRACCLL
# [2] = biological target: T1, Mannose-6-phosphate isomerase; assay: human PMI inhibitors, high substrate, primary screen, biochemical, fluorescence intensity, high mannose 6-phosphate (AID 1220)
# [3] = THP-1 cell cytotoxicity, dose response, cytotoxicity control for Vif-APOBEC3G degradation inhibitor project, THP-1 cells (AID 1117359); assay type: functional; conditions: Human immunodeficiency virus 1, THP-1
# [4] = biological target: Sphingosine 1-phosphate receptor 2 (Homo sapiens, UniProt O95136); assay: Dose Response Cell Based Assay for Antagonists of the S1P2 Receptor. [Related pubchem assays: 856, 736 ]; assay type: functional
# Sphingosine 1-phosphate receptor 2, sequence (O95136 whole entry): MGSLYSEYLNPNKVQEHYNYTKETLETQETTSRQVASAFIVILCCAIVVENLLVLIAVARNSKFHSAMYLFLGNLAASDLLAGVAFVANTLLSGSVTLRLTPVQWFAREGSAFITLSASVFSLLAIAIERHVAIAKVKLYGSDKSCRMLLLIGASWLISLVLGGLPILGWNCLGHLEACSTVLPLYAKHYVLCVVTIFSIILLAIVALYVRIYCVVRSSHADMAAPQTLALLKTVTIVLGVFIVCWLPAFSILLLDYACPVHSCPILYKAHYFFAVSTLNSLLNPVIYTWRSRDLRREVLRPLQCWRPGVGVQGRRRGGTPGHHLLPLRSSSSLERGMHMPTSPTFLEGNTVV
# [5] = test system: Streptococcus sp. 'group A'; assay: growth inhibition of control SK(-) GAS strain, dose response, counter-screen for streptokinase expression inhibitor project, luminescence, kanamycin, BacTiterGlo, confirmation (AID 1900); assay type: functional, organism-based
# [6] = inhibitors of intracellular T. cruzi replication, confirmation, NIH3T3 host cells, beta-gal luminescence (AID 2044); assay type: functional, cell-based;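 note: intracellular parasites grown in NIH/3T3 mouse fibroblasts as host cells; luminescent beta-galactosidase reporter signal from transgenic T. cruzi replicating inside host cells; inhibitors lower the luminescence signal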
# [7] = cytotoxicity toward NIH3T3 fibroblasts, dose response, counter-screen, cell-based, ATP luminescence, mouse fibroblasts (AID 2010); assay type: functional;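 note: cells exposed to compound for about 90 hours before reading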
# Streptococcus = assay: Group A Streptococcus viability loss, dose response, counter-screen for streptokinase expression inhibitor project, luminescence, BacTiterGlo (AID 1915); assay type: functional, organism-based;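 note: potency for reduction of bacterial viability or growth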
# [8] = Luminescence Cell-Based Dose Response to Identify Activators of 5'UTR Stem-Loop Driven Prion Protein mRNA Translation in H4-C Neuroglioblastoma Cells. [Related pubchem assays: 1829 (Project Summary), 1814 (Primary HTS)]; assay type: functional
# [9] = Luminescence Cell-Based Dose Response HTS to Identify Activators of Luciferase Translation or Activity in H4 […] Cells. [Related pubchem assays: 1829 (Project Summary), 1814 (Primary HTS)]; assay type: functional
# H4 = assay: Luminescence Cell-Based Dose Response HTS to Identify Activators of 5'UTR Stem-Loop Driven Prion Protein mRNA Translation in H4 Neuroglioblastoma Cells. [Related pubchem assays: 1829 (Project Summary), 1814 (Primary HTS)]; assay type: functional; conditions: Homo sapiens
# [10] = Luminescence Cell-Based Dose Response to Identify Activators of Luciferase Translation or Activity in H4-C Neuroglioblastoma Cells. [Related pubchem assays: 1829 (Project Summary), 1814 (Primary HTS)]; assay type: functional
# [11] = Luminescence Cell-Based Dose Confirmation to Identify Activators of 5'UTR Stem-Loop Driven Alpha-Synuclein mRNA Translation in H4 Neuroglioblastoma Cells. [Related pubchem assays: 1829 (Project Summary), 1814 (Primary HTS)]; assay type: functional
# [12] = biological target: T2, Apoptotic protease-activating factor 1 (Homo sapiens, UniProt O14727); assay type: functional
# T2 sequence (O14727 whole entry): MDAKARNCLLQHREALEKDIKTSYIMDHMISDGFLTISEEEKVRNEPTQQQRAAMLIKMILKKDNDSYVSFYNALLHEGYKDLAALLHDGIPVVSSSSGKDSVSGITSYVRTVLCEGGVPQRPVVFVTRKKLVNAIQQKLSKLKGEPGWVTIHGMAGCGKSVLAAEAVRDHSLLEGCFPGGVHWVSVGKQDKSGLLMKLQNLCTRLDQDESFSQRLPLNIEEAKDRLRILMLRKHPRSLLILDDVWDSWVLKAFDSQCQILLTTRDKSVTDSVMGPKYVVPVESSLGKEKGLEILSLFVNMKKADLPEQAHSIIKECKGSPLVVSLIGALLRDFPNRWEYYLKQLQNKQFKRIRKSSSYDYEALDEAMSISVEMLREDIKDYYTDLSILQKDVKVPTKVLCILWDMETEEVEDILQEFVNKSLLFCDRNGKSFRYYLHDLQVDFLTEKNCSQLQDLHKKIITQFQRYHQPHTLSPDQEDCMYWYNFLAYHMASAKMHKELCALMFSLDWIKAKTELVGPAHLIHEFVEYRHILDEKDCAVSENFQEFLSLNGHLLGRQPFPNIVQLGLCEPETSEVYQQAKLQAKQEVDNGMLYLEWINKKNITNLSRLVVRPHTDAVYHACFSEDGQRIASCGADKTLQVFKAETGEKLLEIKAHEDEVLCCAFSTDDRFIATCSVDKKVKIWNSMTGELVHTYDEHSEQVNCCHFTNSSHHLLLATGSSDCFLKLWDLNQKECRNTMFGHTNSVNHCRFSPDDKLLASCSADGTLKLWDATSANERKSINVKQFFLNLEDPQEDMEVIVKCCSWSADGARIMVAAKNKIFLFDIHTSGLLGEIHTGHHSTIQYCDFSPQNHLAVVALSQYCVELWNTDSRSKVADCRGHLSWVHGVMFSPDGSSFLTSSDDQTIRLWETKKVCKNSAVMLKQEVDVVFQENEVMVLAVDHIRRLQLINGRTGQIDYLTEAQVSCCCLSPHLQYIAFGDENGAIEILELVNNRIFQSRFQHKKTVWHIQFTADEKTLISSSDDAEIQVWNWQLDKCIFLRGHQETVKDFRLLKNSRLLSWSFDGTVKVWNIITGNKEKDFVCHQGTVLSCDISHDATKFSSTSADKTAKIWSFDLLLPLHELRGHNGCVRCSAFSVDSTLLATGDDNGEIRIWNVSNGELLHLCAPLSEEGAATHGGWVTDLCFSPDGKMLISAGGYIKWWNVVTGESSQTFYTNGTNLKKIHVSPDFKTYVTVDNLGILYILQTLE
# [13] = biological target: T3, Aryl hydrocarbon receptor (Homo sapiens, UniProt P35869); assay: Luminescence-based cell-based high throughput dose response assay for activators of the Aryl Hydrocarbon Receptor (AHR). [Related pubchem assays: 2796 (Primary screen (AHR activators in singlicate)), 2845 (Confirmation screen (AHR activators in triplicate)), 434939 (Counterscreen (PXR activators in triplicate)), 2804 (Summary (AHR activators))]; assay type: ADME
# T3 sequence (P35869 whole entry): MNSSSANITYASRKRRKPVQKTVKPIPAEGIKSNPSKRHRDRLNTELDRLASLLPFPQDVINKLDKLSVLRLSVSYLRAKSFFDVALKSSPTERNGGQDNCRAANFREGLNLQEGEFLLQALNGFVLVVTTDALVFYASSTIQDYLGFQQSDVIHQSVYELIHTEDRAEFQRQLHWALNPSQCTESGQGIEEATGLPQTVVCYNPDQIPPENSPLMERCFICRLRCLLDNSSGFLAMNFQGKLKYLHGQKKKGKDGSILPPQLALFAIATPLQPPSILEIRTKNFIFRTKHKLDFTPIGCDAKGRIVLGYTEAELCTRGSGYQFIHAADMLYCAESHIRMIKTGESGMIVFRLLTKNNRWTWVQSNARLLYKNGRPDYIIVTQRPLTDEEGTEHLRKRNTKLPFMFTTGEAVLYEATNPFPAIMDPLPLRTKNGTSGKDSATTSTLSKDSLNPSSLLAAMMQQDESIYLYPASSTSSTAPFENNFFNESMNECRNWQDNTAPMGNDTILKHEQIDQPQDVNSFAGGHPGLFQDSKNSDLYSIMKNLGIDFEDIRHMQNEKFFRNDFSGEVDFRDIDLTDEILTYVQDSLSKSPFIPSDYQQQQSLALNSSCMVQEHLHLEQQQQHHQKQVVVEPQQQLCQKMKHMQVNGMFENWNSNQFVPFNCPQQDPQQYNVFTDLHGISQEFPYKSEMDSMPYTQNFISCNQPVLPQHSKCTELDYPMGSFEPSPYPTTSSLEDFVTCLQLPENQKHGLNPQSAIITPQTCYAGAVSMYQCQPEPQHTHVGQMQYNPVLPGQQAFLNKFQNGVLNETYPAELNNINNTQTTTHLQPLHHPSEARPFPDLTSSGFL
# [14] = biological target: E3 ubiquitin-protein ligase Mdm2 (Homo sapiens, UniProt Q00987); assay: enhancers of MDM2-luciferase reporter signal, concentration-effect titration, project on inhibitors of MDM2 ubiquitin ligase, cellular assay, luminescent readout, 384-well plate format (AID 1394); assay type: functional;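 note: MDM2 E3 inhibitors raise luminescence so EC50 is for signal enhancement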
# E3 ubiquitin-protein ligase Mdm2, sequence (Q00987 whole entry): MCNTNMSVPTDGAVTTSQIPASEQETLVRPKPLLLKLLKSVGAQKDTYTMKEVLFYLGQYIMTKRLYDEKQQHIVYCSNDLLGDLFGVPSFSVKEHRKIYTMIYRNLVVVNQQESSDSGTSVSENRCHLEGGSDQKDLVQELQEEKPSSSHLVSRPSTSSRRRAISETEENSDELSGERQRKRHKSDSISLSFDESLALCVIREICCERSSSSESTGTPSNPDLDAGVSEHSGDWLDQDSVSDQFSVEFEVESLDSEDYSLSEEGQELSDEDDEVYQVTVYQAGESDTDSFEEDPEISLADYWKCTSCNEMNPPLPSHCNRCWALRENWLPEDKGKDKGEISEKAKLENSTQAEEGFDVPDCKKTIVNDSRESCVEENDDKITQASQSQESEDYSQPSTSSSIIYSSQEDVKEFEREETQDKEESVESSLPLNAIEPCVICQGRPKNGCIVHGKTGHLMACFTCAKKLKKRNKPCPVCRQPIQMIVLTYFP
# [15] = biological target: Voltage-gated inwardly rectifying potassium channel KCNH2 (Homo sapiens, UniProt Q12809); assay: hERG protection from proarrhythmic block, potency, dose response, cell-based, thallium flux (AID 2121); assay type: ADME
# Voltage-gated inwardly rectifying potassium channel KCNH2, sequence (Q12809 whole entry): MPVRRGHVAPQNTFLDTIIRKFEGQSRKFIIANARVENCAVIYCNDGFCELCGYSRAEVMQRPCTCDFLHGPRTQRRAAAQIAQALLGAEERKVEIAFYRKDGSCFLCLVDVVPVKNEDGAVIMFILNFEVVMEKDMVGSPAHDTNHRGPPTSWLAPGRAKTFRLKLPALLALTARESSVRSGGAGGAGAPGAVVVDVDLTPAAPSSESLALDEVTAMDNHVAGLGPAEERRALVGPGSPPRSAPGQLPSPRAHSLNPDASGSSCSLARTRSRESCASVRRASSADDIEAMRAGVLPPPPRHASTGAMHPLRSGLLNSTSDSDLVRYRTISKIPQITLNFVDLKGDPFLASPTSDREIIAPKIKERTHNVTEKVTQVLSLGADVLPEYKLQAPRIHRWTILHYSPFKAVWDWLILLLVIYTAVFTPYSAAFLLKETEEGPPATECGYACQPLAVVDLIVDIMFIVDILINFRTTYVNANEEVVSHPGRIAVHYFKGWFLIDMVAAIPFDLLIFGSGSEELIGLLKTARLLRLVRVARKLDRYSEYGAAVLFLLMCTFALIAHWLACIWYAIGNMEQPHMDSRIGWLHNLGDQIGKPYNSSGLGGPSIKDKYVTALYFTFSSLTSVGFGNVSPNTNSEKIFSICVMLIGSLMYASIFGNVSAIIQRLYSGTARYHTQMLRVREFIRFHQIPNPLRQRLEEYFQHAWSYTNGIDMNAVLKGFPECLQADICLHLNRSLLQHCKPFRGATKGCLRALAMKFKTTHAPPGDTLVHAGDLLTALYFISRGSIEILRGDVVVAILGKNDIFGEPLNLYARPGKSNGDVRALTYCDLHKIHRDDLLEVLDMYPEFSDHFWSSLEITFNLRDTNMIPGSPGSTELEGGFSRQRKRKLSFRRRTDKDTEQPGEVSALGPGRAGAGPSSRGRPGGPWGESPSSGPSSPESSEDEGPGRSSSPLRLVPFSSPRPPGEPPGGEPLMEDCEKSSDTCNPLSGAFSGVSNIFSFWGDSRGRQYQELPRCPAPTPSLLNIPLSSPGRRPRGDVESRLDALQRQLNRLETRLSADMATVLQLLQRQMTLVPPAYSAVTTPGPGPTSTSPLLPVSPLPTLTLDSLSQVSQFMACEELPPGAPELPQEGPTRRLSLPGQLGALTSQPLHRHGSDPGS
smiles,measurement,setting,value
CC(C)NC[C@@H](O)c1ccc(O)c(O)c1,IC50,[1],> 50 µM (not active)
same,IC50,[2],> 50 µM (not active)
same,CC50,[3],> 40 µM (active)
Cn1c(-c2c(N)n(C3CCCC3)c3nc4ccccc4nc23)nc2ccccc21,IC50,[4],5.09 µM (active)
same,EC50,[5],0.391 µM (active)
same,EC50,[6],0.905 µM (active)
same,EC50,[7],> 30 µM (not active)
same,EC50,Streptococcus,2.96 µM (active)
Cc1cc(NC(=O)c2noc3c2CCCCC3)no1,EC50,[8],2.21 µM (active)
same,EC50,[9],< 0.1 µM (inconclusive)
same,EC50,H4,32.2 µM (active)
same,EC50,[10],0.648 µM (active)
same,EC50,[11],5.07 µM (active)
CCN1C(=O)c2cccc3c(N)ccc1c23,IC50,[2],> 50 µM (not active)
same,IC50,[12],44 µM (active)
CCC(=O)NC(=S)Nc1ccc(NC(=O)c2ccco2)c(Cl)c1,EC50,[13],4.47 µM (active)
Cc1nc(SCc2ccc(F)cc2)c([N+](=O)[O-])[nH]1,EC50,[14],7.19 µM (not active)
FC(F)(F)c1cnc2c(-c3cccs3)c(-c3nc[nH]n3)sc2c1,IC50,[4],13.9 µM (not active)
O=C(NC(=S)Nc1cc(C(F)(F)F)ccc1Cl)c1ccccc1,EC50,[15],0.24 µM (active)
C/C(=N/Nc1ccc(F)cc1)c1ccc(Cl)s1,EC50,[13],4.71 µM (active)
